Data as given in US6806265B2, “Non-nucleoside reverse transcriptase inhibitors” (priority 2002, dated 2004).
Like-named read-outs stand apart in the source and are kept apart here.

Tests used:
[1] = test system: HIV-1 double mutant K103N/Y181C; assay: microbe, parasite or virus in culture; type: cell-based
[2] = biological target: T1, HIV-1 wild type reverse transcriptase (Human immunodeficiency virus type 1 group M subtype B, UniProt P03366); assay: biochemical; details: wild type RT; read-out: IC50 WT RT
T1 construct: HIV-1 wild type reverse transcriptase
Procedure: (§1) Utilizing the Reverse Transcriptase (RT) Assay described below, compounds were tested for their ability to inhibit the RNA-dependent DNA polymerase activity of HIV-1 RT. Certain specific compounds described in the Examples and in Tables 1-4, were so tested. The results of this testing appear in Table 5 as ranges of IC50 (nM) and EC50 (nM).
(§2) Reverse Transcriptase (RT) Assays

[3] = biological target: T2, HIV-1 RT double mutant K103N/Y181C (Human immunodeficiency virus type 1 group M subtype B, UniProt P03366, K702N/Y780C); assay: biochemical
T2 construct: HIV-1 wild type reverse transcriptase as well as the clinically significant double mutant K103N/Y181C
Procedure: as §1, §2

[4] = test system: HIV-1 wild type; assay: microbe, parasite or virus in culture; type: cell-based
[5] = double mutant K103N/Y181C, read-out: EC50 K103N/Y181C
[6] = RT double mutant K103N/Y181C, read-out: IC50 K103N/Y181C
[7] = wild type, read-out: EC50 WT RT
[8] = Human immunodeficiency virus 1, read-out: EC50 K103N/Y181C (nM)
[9] = Human immunodeficiency virus 1, read-out: EC50 WT RT (nM)
[10] = Human immunodeficiency virus 1, wild type, read-out: EC50 WT RT

`CCN1c2ncc(CCOc3ccc(-c4ccccc4)cc3)cc2C(=O)N(C)c2cccnc21` [Entry 1101] showed an EC50 [1, 5] greater than 50 nM, an IC50 [2] of less than 50 nM and an IC50 [3, 6] of 50 to 100 nM. The EC50 [4, 7] was less than 10 nM.
For `CCN1c2ncc(CCOc3ccc(C(=O)Nc4ccc(C(=O)O)cc4)cc3C)cc2C(=O)N(C)c2cccnc21` [Entry 3001, 4-{{4-[2-(11-Ethyl-6,11-dihydro-5-methyl-6-oxo-5H-dipyrido[3,2-b:2′,3′-e][1,4]diazepin-8-yl)ethoxy]-3-methylbenzoyl}amino}benzoic acid], the EC50 [1, 8] was 10 to 50 nM, the IC50 [2] was less than 50 nM and the IC50 [3] was less than 50 nM. The EC50 [4, 9] was less than 10 nM.
`CCN1c2ncc(CCOc3ccc(-c4ccc(CC(=O)O)cc4)cc3C)cc2C(=O)N(C)c2cccnc21` [Entry 1008] was tested, and the EC50 [1, 5] was less than 10 nM, the IC50 [2] was less than 50 nM and the IC50 [3, 6] was less than 50 nM. The EC50 [4, 7] was less than 10 nM.
For `CCN1c2ncc(CCOc3ccc(C(=O)N4CCC(C(=O)O)CC4)cc3C)cc2C(=O)N(C)c2cccnc21` [Entry 3008], the IC50 [2] was less than 50 nM, the IC50 [3] was 50 to 100 nM and the EC50 [4, 10] was 10 to 50 nM.
Work on `CCN1c2ncc(CCOc3ccc(NC(=O)CC(C)(C)C(=O)O)cc3C)cc2C(=O)N(C)c2cccnc21` [Entry 4008] yielded an EC50 [1, 8] of 10 to 50 nM, an IC50 [2] of less than 50 nM and an IC50 [3] greater than 100 nM. The EC50 [4, 10] was less than 10 nM.
With `CCN1c2ncc(CCOc3ccc(NC(=O)NCC(=O)O)cc3C)cc2C(=O)N(C)c2cccnc21` [Entry 4004] the IC50 [2] was less than 50 nM, the IC50 [3] was greater than 100 nM and the EC50 [4, 10] was 10 to 50 nM.
Compound `CCN1c2ncc(CCOc3ccc(NC(=O)c4ccccc4C(=O)O)cc3C)cc2C(=O)N(C)c2cccnc21` [Entry 3033] has an EC50 [1, 8] of 10 to 50 nM, an IC50 [2] of less than 50 nM and an IC50 [3] greater than 100 nM. It also gave an EC50 [4, 9] of less than 10 nM.
Compound `CCN1c2ncc(CCOc3ccc(C(=O)NN)cc3C)cc2C(=O)N(C)c2cccnc21` [Entry 4011, 4-[2-(11-Ethyl-6,11-dihydro-5-methyl-6-oxo-5H-dipyrido[3,2-b:2′,3′-e][1,4]diazepin-8-yl)ethoxy]-3-methylbenzoic acid hydrazide] has an EC50 [1, 8] of less than 10 nM, an IC50 [2] of less than 50 nM and an IC50 [3] of less than 50 nM. It also gave an EC50 [4, 10] of less than 10 nM.
For `CCN1c2ncc(CCOc3ccc(C(=O)NS(C)(=O)=O)cc3C)cc2C(=O)N(C)c2cccnc21` [Entry 4013, 4-[2-(11-Ethyl-6,11-dihydro-5-methyl-6-oxo-5H-dipyrido[3,2-b:2′,3′-e][1,4]diazepin-8-yl)ethoxy]-3-methyl-N-(methylsulfonyl)benzamide], the EC50 [1, 8] was greater than 50 nM, the IC50 [2] was less than 50 nM and the IC50 [3] was greater than 100 nM. The EC50 [4, 10] was 10 to 50 nM.
`CCN1c2ncccc2NC(=O)c2cc(CCOc3ccc(-c4ccc(CC(=O)O)cc4)cc3C)cnc21` [Entry 1058] was tested, and the EC50 [1, 5] was 10 to 50 nM, the IC50 [2] was less than 50 nM and the IC50 [3, 6] was 50 to 100 nM. The EC50 [4, 7] was less than 10 nM.
With `CCN1c2ncc(CCOc3ccc(C(=O)Nc4nc(CC(=O)O)cs4)cc3C)cc2C(=O)N(C)c2cccnc21` [Entry 3007] the EC50 [1, 8] was greater than 50 nM, the IC50 [2] was less than 50 nM and the IC50 [3] was less than 50 nM. It also gave an EC50 [4, 10] of 10 to 50 nM.
With `CCN1c2ncc(CCOc3ccc(NC(=O)/C=C/C(=O)O)cc3C)cc2C(=O)N(C)c2cccnc21` [Entry 4010] the IC50 [2] was less than 50 nM, the IC50 [3] was 50 to 100 nM and the EC50 [4, 10] was greater than 50 nM.
For `CCN1c2ncc(CCOc3ccc(-c4cccc(C(=O)O)c4)cc3)cc2C(=O)N(C)c2cccnc21` [Entry 1012], the EC50 [1, 5] was 10 to 50 nM, the IC50 [2] was less than 50 nM and the IC50 [3, 6] was greater than 100 nM. The EC50 [4, 7] was less than 10 nM.
`CCN1c2ncc(CCOc3ccc(-c4ccc(C(=O)O)cc4)cc3)cc2C(=O)N(C)c2ccc(Cl)nc21` [Entry 1002] gave an IC50 [2] of less than 50 nM, an IC50 [3, 6] of less than 50 nM and an EC50 [4, 7] of less than 10 nM.
`CCN1c2ncc(CCOc3ccc(Nc4nc(C(=O)O)cs4)cc3C)cc2C(=O)N(C)c2cccnc21` [Entry 3026] was tested, and the EC50 [1, 8] was 10 to 50 nM, the IC50 [3] was 50 to 100 nM and the EC50 [4, 10] was less than 10 nM.
Compound `CCN1c2ncccc2NC(=O)c2cc(CCOc3ccc(-c4ccc[n+]([O-])c4)cc3C)cnc21` [Entry 1100] has an EC50 [1, 5] of 10 to 50 nM, an IC50 [2] of less than 50 nM and an EC50 [4, 7] of less than 10 nM.
With `CCN1c2ncc(CCOc3ccc(-c4ccc(C(=O)O)cc4)c(C)c3)cc2C(=O)N(C)c2cccnc21` [Entry 1005] the EC50 [1, 5] was greater than 50 nM, the IC50 [2] was less than 50 nM and the IC50 [3, 6] was greater than 100 nM. For the same compound, the EC50 [4, 7] was 10 to 50 nM.
Compound `CCN1c2ncc(CCOc3ccc(-c4ccc(CC(=O)O)cc4)cc3CO)cc2C(=O)N(C)c2cccnc21` [Entry 1104] has an EC50 [1, 5] of 10 to 50 nM, an IC50 [2] of less than 50 nM and an IC50 [3, 6] of less than 50 nM. For the same compound, the EC50 [4, 7] was less than 10 nM.
In the case of `CCN1c2ncc(CCOc3ccc(C(=O)NCC4(C(=O)O)CCCC4)cc3C)cc2C(=O)N(C)c2cccnc21` [Entry 4018], the EC50 [1, 8] is reported as 10 to 50 nM, the IC50 [2] is reported as less than 50 nM and the IC50 [3] is reported as greater than 100 nM. The EC50 [4, 10] was less than 10 nM.
Work on `CCN1c2ncc(CCOc3ccc(-c4ccc(CC(=O)O)cc4)cc3)cc2C(=O)N(C)c2cccnc21` [Entry 1007] yielded an EC50 [1, 5] greater than 50 nM, an IC50 [2] of less than 50 nM and an IC50 [3, 6] of 50 to 100 nM. For the same compound, the EC50 [4, 7] was 10 to 50 nM.
`CCN1c2ncc(CCOc3ccc(-c4csc(N)n4)cc3C)cc2C(=O)N(C)c2cccnc21` [Entry 1093, 8-{2-[4-(2-Amino-4-thiazolyl)-2-methylphenoxy]ethyl}-11-ethyl-5,11-dihydro-5-methyl-6H-dipyrido[3,2-b:2′,3′-e][1,4]diazepin-6-one] gave an EC50 [1, 8] of less than 10 nM, an IC50 [2] of less than 50 nM and an IC50 [3] of less than 50 nM. For the same compound, the EC50 [4, 10] was less than 10 nM.
`CCN1c2ncc(CCOc3ccc(C(=O)Nc4ccccc4C(=O)O)cc3C)cc2C(=O)N(C)c2cccnc21` [Entry 3011] gave an EC50 [1, 8] greater than 50 nM, an IC50 [2] of less than 50 nM and an IC50 [3] greater than 100 nM. It also gave an EC50 [4, 9] of 10 to 50 nM.
For `CCN1c2ncc(CCOc3ccc(C(=O)NNC)cc3C)cc2C(=O)N(C)c2cccnc21` [Entry 4016], the EC50 [1, 8] was less than 10 nM, the IC50 [2] was less than 50 nM and the IC50 [3] was less than 50 nM. For the same compound, the EC50 [4, 10] was less than 10 nM.
`CCN1c2ncc(CCOc3ccc(-c4ccc(C(=O)O)cc4)c(Cl)c3)cc2C(=O)N(C)c2cccnc21` [Entry 1006] gave an EC50 [1, 5] greater than 50 nM, an IC50 [2] of less than 50 nM and an IC50 [3, 6] of 50 to 100 nM. The EC50 [4, 7] was 10 to 50 nM.
Work on `CCN1c2ncc(CCOc3ccc(C(=O)Nc4cccn(CC(=O)O)c4=O)cc3C)cc2C(=O)N(C)c2cccnc21` [Entry 3012] yielded an EC50 [1, 8] greater than 50 nM, an IC50 [2] of less than 50 nM and an IC50 [3] of 50 to 100 nM. For the same compound, the EC50 [4, 10] was greater than 50 nM.
Work on `CCN1c2ncc(CCOc3ccc(C(=O)NC(C)(C)C(=O)O)cc3C)cc2C(=O)N(C)c2cccnc21` [Entry 4012] yielded an EC50 [1, 8] greater than 50 nM, an IC50 [2] of less than 50 nM and an IC50 [3] of 50 to 100 nM. It also gave an EC50 [4, 10] of 10 to 50 nM.
For `CCN1c2ncc(CCOc3ccc(-c4cccc(CC(=O)O)c4)cc3C)cc2C(=O)N(C)c2cccnc21` [Entry 1015], the EC50 [1, 5] was less than 10 nM, the IC50 [2] was less than 50 nM and the IC50 [3, 6] was less than 50 nM. It also gave an EC50 [4, 7] of less than 10 nM.
Compound `CCN1c2ncc(CCOc3ccc(C(=O)NC(C)(C)CC(=O)O)cc3C)cc2C(=O)N(C)c2cccnc21` [Entry 4017] has an EC50 [1, 8] greater than 50 nM, an IC50 [2] of less than 50 nM and an IC50 [3] greater than 100 nM. It also gave an EC50 [4, 10] of less than 10 nM.
Work on `CCN1c2ncc(CCOc3ccc(-c4ccc(CC(=O)O)cc4)cc3C)cc2C(=O)Nc2c(C)ccnc21` [Entry 1009] yielded an IC50 [2] of less than 50 nM, an IC50 [3, 6] of less than 50 nM and an EC50 [4, 7] of 10 to 50 nM.
For `CCN1c2ncc(CCOc3ccc(C(=O)NNCC(=O)O)cc3C)cc2C(=O)N(C)c2cccnc21` [Entry 4015], the IC50 [2] was less than 50 nM, the IC50 [3] was greater than 100 nM and the EC50 [4, 10] was 10 to 50 nM.
